Assay results reported in publication PMC9597353, “Mitoguardin-2–mediated lipid transfer preserves mitochondrial morphology and lipid droplet formation” (The Journal of Cell Biology, 2022).
Numbering of substitutions follows the chain as printed.

Key:
[1] = target: T1, hMIGA2C (Homo sapiens, UniProt Q7L4E1); test: end-point lipid transfer between tethered liposomes; format: biochemical; conditions: labelled compound; 0.32 µM protein, 2% NBD-lipid in donor liposomes, 30 min
T1 construct: gene MIGA2; C-terminal domain only, residues 306-593, C-terminal His6 kept, expressed in E. coli BL21(DE3); monomer by SEC
T1 sequence (Q7L4E1 306-593): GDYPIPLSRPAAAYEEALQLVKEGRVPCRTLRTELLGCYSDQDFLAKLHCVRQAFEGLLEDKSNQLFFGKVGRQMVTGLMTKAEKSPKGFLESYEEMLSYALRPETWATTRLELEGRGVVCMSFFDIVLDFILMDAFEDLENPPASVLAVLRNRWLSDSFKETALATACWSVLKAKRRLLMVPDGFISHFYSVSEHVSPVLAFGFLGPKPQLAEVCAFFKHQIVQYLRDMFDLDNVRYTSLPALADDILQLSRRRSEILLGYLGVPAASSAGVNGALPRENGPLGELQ

[2] = target: T2, hMIGA2long (Homo sapiens, UniProt Q7L4E1); test: native PAGE co-migration, NBD fluorescence; format: binding; conditions: labelled compound; on ice 2 h
T2 construct: gene MIGA2; N-terminal 3xFLAG (Expi293F) and/or C-terminal His6 (E. coli), tags kept; dimer
T2 sequence (Q7L4E1 170-593): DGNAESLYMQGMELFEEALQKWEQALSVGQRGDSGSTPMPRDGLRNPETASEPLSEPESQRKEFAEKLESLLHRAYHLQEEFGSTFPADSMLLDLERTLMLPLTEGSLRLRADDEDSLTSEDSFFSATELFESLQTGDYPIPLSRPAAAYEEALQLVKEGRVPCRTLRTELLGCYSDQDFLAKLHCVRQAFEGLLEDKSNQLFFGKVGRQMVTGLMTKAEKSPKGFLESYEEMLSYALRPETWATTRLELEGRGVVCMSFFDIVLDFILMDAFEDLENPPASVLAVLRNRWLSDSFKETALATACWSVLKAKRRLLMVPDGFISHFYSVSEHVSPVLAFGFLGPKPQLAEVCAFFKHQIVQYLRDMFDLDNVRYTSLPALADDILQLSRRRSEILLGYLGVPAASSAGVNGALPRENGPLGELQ

[3] = target: T3, hMIGA2long (Homo sapiens, UniProt Q7L4E1, V376D/L438E/F495H/I528K); test: FRET lipid transfer between tethered liposomes; format: biochemical; conditions: labelled compound; 0.25 µM protein, 30°C; mutant M1, 3xFLAG and His6 tags
T3 construct: gene MIGA2; N-terminal 3xFLAG (Expi293F) and/or C-terminal His6 (E. coli), tags kept; dimer
T3 sequence (Q7L4E1 170-593 V376D/L438E/F495H/I528K): T2 sequence (Q7L4E1 170-593) with V207D, L269E, F326H, I359K

[4] = target: T4, hMIGA2long (Homo sapiens, UniProt Q7L4E1, R357N/S428G); test: FRET lipid transfer between tethered liposomes; format: biochemical; conditions: labelled compound; 0.25 µM protein, 30°C; mutant M3, 3xFLAG and His6 tags
T4 construct: gene MIGA2; N-terminal 3xFLAG (Expi293F) and/or C-terminal His6 (E. coli), tags kept; dimer
T4 sequence (Q7L4E1 170-593 R357N/S428G): T2 sequence (Q7L4E1 170-593) with R188N, S259G

[5] = target: T5, hMIGA2long (Homo sapiens, UniProt Q7L4E1, V381E/V502K/L506D/F524H); test: FRET lipid transfer between tethered liposomes; format: biochemical; conditions: labelled compound; 0.25 µM protein, 30°C; mutant M2, 3xFLAG and His6 tags
T5 construct: gene MIGA2; N-terminal 3xFLAG (Expi293F) and/or C-terminal His6 (E. coli), tags kept; dimer
T5 sequence (Q7L4E1 170-593 V381E/V502K/L506D/F524H): T2 sequence (Q7L4E1 170-593) with V212E, V333K, L337D, F355H

[6] = target: T2, hMIGA2long; test: FRET lipid transfer between tethered liposomes; format: biochemical; conditions: labelled compound; 0.25 µM protein, 2% NBD-lipid in donor liposomes, 30°C
[7] = target: human MIGA2 cytosolic fragment with part of the linker region (coiled-coil) and the C-terminal domain, C-terminal 6xhis (human) (UniProt Q7L4E1); test: native MS; 200 mM ammonium acetate, 2 mM DTT; protein 1-5 μM; Q Exactive UHMR
[8] = target: the molecule itself; test: SEC; Superdex 200 16/60, with size standards

With `CCCCCCCC/C=C\CCCCCCCC(=O)OC[C@H](COP(=O)(O)O)OC(=O)CCCCCCCCCCCNc1ccc([N+](=O)[O-])c2nonc12` [NBD-PAacyl] the “end-point lipid transfer between tethered liposomes” value [1] was “Both hMIGA2long and hMIGA2C transport NBD-PEacyl, -PSacyl, -PAacyl, and NBD-PCacyl” and the “native PAGE co-migration, NBD fluorescence” value (“native PAGE co-migration” below) [2] was “Phospholipids (NBD-PAacyl, NBD-PCacyl NBD-PShead, NBD-PEacyl) visualized by their fluorescence, comigrated with protein”.

For `CCCCCCCC/C=C\CCCCCCCC(=O)OC[C@H](COP(=O)([O-])OCC[N+](C)(C)C)OC(=O)CCCCCCCCCCCNc1ccc([N+](=O)[O-])c2nonc12` [NBD-PCacyl], the “end-point lipid transfer between tethered liposomes” value [1] was “Both hMIGA2long and hMIGA2C transport NBD-PEacyl, -PSacyl, -PAacyl, and NBD-PCacyl” and the “native PAGE co-migration” value [2] was “Phospholipids (NBD-PAacyl, NBD-PCacyl NBD-PShead, NBD-PEacyl) visualized by their fluorescence, comigrated with protein”.

For `CCCCCCCC/C=C\CCCCCCCC(=O)OC[C@H](COP(=O)(O)OCCN)OC(=O)CCCCCCCCCCCNc1ccc([N+](=O)[O-])c2nonc12` [NBD-PEacyl], the lipid transfer impaired [3] was “all three mutant constructs (M1, M2, M3) are lipid transfer impaired”, the “end-point lipid transfer between tethered liposomes” value [1] was “Both hMIGA2long and hMIGA2C transport NBD-PEacyl, -PSacyl, -PAacyl, and NBD-PCacyl” and the lipid transfer impaired [4] was “all three mutant constructs (M1, M2, M3) are lipid transfer impaired”. The “native PAGE co-migration” value [2] was “Phospholipids (NBD-PAacyl, NBD-PCacyl NBD-PShead, NBD-PEacyl) visualized by their fluorescence, comigrated with protein” and the lipid transfer impaired [5] was “all three mutant constructs (M1, M2, M3) are lipid transfer impaired”.

With `CCCCCCCC/C=C\CCCCCCCC(=O)OC[C@H](COP(=O)(O)OC[C@H](N)C(=O)O)OC(=O)CCCCCCCCCCCNc1ccc([N+](=O)[O-])c2nonc12` [NBD-PSacyl] the “FRET lipid transfer between tethered liposomes” value [6] was “hMIGA2long can transport NBD-PSacyl, NBD-PAacyl, NBD-PEacyl, and NBD-PCacyl” and the “end-point lipid transfer between tethered liposomes” value [1] was “Both hMIGA2long and hMIGA2C transport NBD-PEacyl, -PSacyl, -PAacyl, and NBD-PCacyl”.

In the case of `CCCCCCCC/C=C\CCCCCCCC(=O)OC[C@H](COP(=O)(O)OC[C@H](Nc1ccc([N+](=O)[O-])c2nonc12)C(=O)O)OC(=O)CCCCCCC/C=C\CCCCCCCC` [NBD-PShead], the “native PAGE co-migration” value [2] is reported as “Phospholipids (NBD-PAacyl, NBD-PCacyl NBD-PShead, NBD-PEacyl) visualized by their fluorescence, comigrated with protein”.

In the case of “human MIGA2 cytosolic fragment with part of the linker region (coiled-coil) and the C-terminal domain, C-terminal 6xhis (from UniProt Q7L4E1 170-593) (domain or fragment)”, the stoichiometry N [7] is reported as 2.

B1: C. elegans MIGA2 cytosolic fragment with the coiled-coil of the linker region and the C-terminal domain (residues 106-496) (domain or fragment, UniProt Q21096 106-496, looked up)
chain: SMNPIEADITSGQELCTELRKTIEKVHHNLEMVKNRSSKDMERSIKIEGILKGLKQVEDEIVLLVPQMEDFRDDNMEFYSVSGGSGYAGSVRTGRSRTLSVLSDDSFRSAVEEFACDIDDIDFVSDAANLDKNELRFLDEGMQAALNGEVKYRKSRMEFCKCDSETDFAAKLYCVRQALTNALKDEHKRVWLAKCGRTLLADFIRHTKQDPVKFFNAYDEMLEYVSNDRNEEQLRQDVEGRGVCETGFYDVAIDFIILDAFEDLKSPPSAVYSVTKNYFMSMSMKYSTLNTIIWSIIKSKRQRLKNPDGFIAKFYNISETVMPAITLGFLGTDERLGELCQYFKEQVVQFVLDVFNTQKVCYRSLEEMSEDVWIVMRNRLEAVQTRMSNEL
notes: C. elegans MIGA (mitoguardin homolog), Uniprot Q21096, residues 106-496: coiled-coil segment of the linker region and the C-terminal domain; Co-purifies with glycerophospholipid from E. coli; Plasmids of the study are in Addgene (192832, 192833, 192834, 192835, 192837, 192866, 192867); also called CeMIGA2_(long); CeMIGA_(long); source: E. coli C43 (DE3), purified (Ni-NTA, sumo protease, second …)
For B1, the “stoichiometry N” value [8] was 2.
